Measured values: PubChem BioAssay (NCI)
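Where inhibition never reached the appropriate level, the endpoint shown equals the highest concentration tested. Otherwise, values were interpolated linearly from a five-concentration, 48-hour dose response in 96-well plates. At the TGI there is no net growth.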

How the values were obtained:
Assay in all cases: NCI-60 cell line screen, 48 h
786-0 renal = test system: 786-0 renal
A549 NSCLC = test system: A549 NSCLC
ACHN renal = test system: ACHN renal
CAKI-1 renal = test system: CAKI-1 renal
CCRF-CEM leukemia = test system: CCRF-CEM leukemia
COLO 205 colon = test system: COLO 205 colon
DLD-1 colon = test system: DLD-1 colon
DMS 114 small cell lung = test system: DMS 114 small cell lung
DMS 273 small cell lung = test system: DMS 273 small cell lung
HCC-2998 colon = test system: HCC-2998 colon
HCT-116 colon = test system: HCT-116 colon
HCT-15 colon = test system: HCT-15 colon
HOP-62 NSCLC = test system: HOP-62 NSCLC
HOP-92 NSCLC = test system: HOP-92 NSCLC
HT29 colon = test system: HT29 colon
IGROV1 ovarian = test system: IGROV1 ovarian
KM12 colon = test system: KM12 colon
KM20L2 colon = test system: KM20L2 colon
LOX IMVI melanoma = test system: LOX IMVI melanoma
LXFL 529 NSCLC = test system: LXFL 529 NSCLC
M14 melanoma = test system: M14 melanoma
M19-MEL melanoma = test system: M19-MEL melanoma
MALME-3M melanoma = test system: MALME-3M melanoma
NCI-H226 lung = test system: NCI-H226 lung
NCI-H23 lung = test system: NCI-H23 lung
NCI-H460 lung = test system: NCI-H460 lung
NCI-H522 lung = test system: NCI-H522 lung
OVCAR-3 ovarian = test system: OVCAR-3 ovarian
OVCAR-4 ovarian = test system: OVCAR-4 ovarian
OVCAR-5 ovarian = test system: OVCAR-5 ovarian
OVCAR-8 ovarian = test system: OVCAR-8 ovarian
RPMI-8226 leukemia = test system: RPMI-8226 leukemia
RXF 393 renal = test system: RXF 393 renal
SF-268 CNS = test system: SF-268 CNS
SF-295 CNS = test system: SF-295 CNS
SF-539 CNS = test system: SF-539 CNS
SK-MEL-28 melanoma = test system: SK-MEL-28 melanoma
SK-MEL-5 melanoma = test system: SK-MEL-5 melanoma
SK-OV-3 ovarian = test system: SK-OV-3 ovarian
SN12C renal = test system: SN12C renal
SNB-19 CNS = test system: SNB-19 CNS
SNB-75 CNS = test system: SNB-75 CNS
SNB-78 CNS = test system: SNB-78 CNS
SW-620 colon = test system: SW-620 colon
TK-10 renal = test system: TK-10 renal
U251 CNS = test system: U251 CNS
UACC-257 melanoma = test system: UACC-257 melanoma
UACC-62 melanoma = test system: UACC-62 melanoma
UO-31 renal = test system: UO-31 renal
XF 498 CNS = test system: XF 498 CNS
A498 renal = test system: A498 renal
EKVX NSCLC = test system: EKVX NSCLC
HL-60(TB) leukemia = test system: HL-60(TB) leukemia
K-562 leukemia = test system: K-562 leukemia
MOLT-4 leukemia = test system: MOLT-4 leukemia
SK-MEL-2 melanoma = test system: SK-MEL-2 melanoma
SR leukemia = test system: SR leukemia

SMILES: COC(=O)OCC1OC(N2C(=O)NC(=O)C(Br)C2N=[N+]=[N-])CC1OC(=O)OC (centres undefined)
- TGI (786-0 renal): > 100 µM
- TGI (A549 NSCLC): > 100 µM
- TGI (ACHN renal): > 100 µM
- TGI (CAKI-1 renal): > 100 µM
- TGI (CCRF-CEM leukemia): > 100 µM
- TGI (COLO 205 colon): > 100 µM
- TGI (DLD-1 colon): > 100 µM
- TGI (DMS 114 small cell lung): > 100 µM
- TGI (DMS 273 small cell lung): > 100 µM
- TGI (HCC-2998 colon): > 100 µM
- TGI (HCT-116 colon): > 100 µM
- TGI (HCT-15 colon): > 100 µM
- TGI (HOP-62 NSCLC): > 100 µM
- TGI (HOP-92 NSCLC): > 100 µM
- TGI (HT29 colon): > 100 µM
- TGI (IGROV1 ovarian): > 100 µM
- TGI (KM12 colon): > 100 µM
- TGI (KM20L2 colon): > 100 µM
- TGI (LOX IMVI melanoma): > 100 µM
- TGI (LXFL 529 NSCLC): > 100 µM
- TGI (M14 melanoma): > 100 µM
- TGI (M19-MEL melanoma): > 100 µM
- TGI (MALME-3M melanoma): > 100 µM
- TGI (NCI-H226 lung): > 100 µM
- TGI (NCI-H23 lung): > 100 µM
- TGI (NCI-H460 lung): > 100 µM
- TGI (NCI-H522 lung): > 100 µM
- TGI (OVCAR-3 ovarian): > 100 µM
- TGI (OVCAR-4 ovarian): > 100 µM
- TGI (OVCAR-5 ovarian): > 100 µM
- TGI (OVCAR-8 ovarian): > 100 µM
- TGI (RPMI-8226 leukemia): > 100 µM
- TGI (RXF 393 renal): > 100 µM
- TGI (SF-268 CNS): > 100 µM
- TGI (SF-295 CNS): > 100 µM
- TGI (SF-539 CNS): > 100 µM
- TGI (SK-MEL-28 melanoma): > 100 µM
- TGI (SK-MEL-5 melanoma): > 100 µM
- TGI (SK-OV-3 ovarian): > 100 µM
- TGI (SN12C renal): > 100 µM
- TGI (SNB-19 CNS): > 100 µM
- TGI (SNB-75 CNS): > 100 µM
- TGI (SNB-78 CNS): > 100 µM
- TGI (SW-620 colon): > 100 µM
- TGI (TK-10 renal): > 100 µM
- TGI (U251 CNS): > 100 µM
- TGI (UACC-257 melanoma): > 100 µM
- TGI (UACC-62 melanoma): > 100 µM
- TGI (UO-31 renal): > 100 µM
- TGI (XF 498 CNS): > 100 µM

SMILES: COc1ccc(O)cc1
- TGI (786-0 renal): > 100 µM
- TGI (A498 renal): > 100 µM
- TGI (A549 NSCLC): > 100 µM
- TGI (ACHN renal): > 100 µM
- TGI (CAKI-1 renal): > 100 µM
- TGI (CCRF-CEM leukemia): > 100 µM
- TGI (COLO 205 colon): > 100 µM
- TGI (DLD-1 colon): > 100 µM
- TGI (DMS 114 small cell lung): > 100 µM
- TGI (EKVX NSCLC): > 100 µM
- TGI (HCC-2998 colon): > 100 µM
- TGI (HCT-116 colon): > 100 µM
- TGI (HCT-15 colon): 98.4 µM
- TGI (HL-60(TB) leukemia): > 100 µM
- TGI (HOP-62 NSCLC): > 100 µM
- TGI (HOP-92 NSCLC): > 100 µM
- TGI (HT29 colon): > 100 µM
- TGI (IGROV1 ovarian): > 100 µM
- TGI (K-562 leukemia): > 100 µM
- TGI (KM12 colon): > 100 µM
- TGI (KM20L2 colon): > 100 µM
- TGI (LOX IMVI melanoma): > 100 µM
- TGI (LXFL 529 NSCLC): > 100 µM
- TGI (M14 melanoma): > 100 µM
- TGI (M19-MEL melanoma): > 100 µM
- TGI (MALME-3M melanoma): > 100 µM
- TGI (MOLT-4 leukemia): > 100 µM
- TGI (NCI-H226 lung): > 100 µM
- TGI (NCI-H23 lung): > 100 µM
- TGI (NCI-H460 lung): > 100 µM
- TGI (OVCAR-3 ovarian): > 100 µM
- TGI (OVCAR-4 ovarian): > 100 µM
- TGI (OVCAR-5 ovarian): > 100 µM
- TGI (OVCAR-8 ovarian): > 100 µM
- TGI (RPMI-8226 leukemia): > 100 µM
- TGI (RXF 393 renal): > 100 µM
- TGI (SF-268 CNS): > 100 µM
- TGI (SF-539 CNS): > 100 µM
- TGI (SK-MEL-2 melanoma): > 100 µM
- TGI (SK-MEL-28 melanoma): > 100 µM
- TGI (SK-MEL-5 melanoma): > 100 µM
- TGI (SK-OV-3 ovarian): > 100 µM
- TGI (SN12C renal): > 100 µM
- TGI (SNB-19 CNS): > 100 µM
- TGI (SNB-75 CNS): > 100 µM
- TGI (SNB-78 CNS): > 100 µM
- TGI (SR leukemia): > 100 µM
- TGI (SW-620 colon): > 100 µM
- TGI (TK-10 renal): > 100 µM
- TGI (U251 CNS): > 100 µM
- TGI (UACC-257 melanoma): > 100 µM
- TGI (UACC-62 melanoma): 87.1 µM
- TGI (UO-31 renal): > 100 µM
- TGI (XF 498 CNS): > 100 µM
